Reference: ChEMBL document CHEMBL3885861, “Open TG-GATES”

Organism: Rattus norvegicus
Assay: Open TG-GATES - Regimen: Daily Repeat
Type: toxicity, organism-based, Sprague-Dawley
Design: regimen Daily Repeat, gender Male, age 6 weeks
Conditions: in vivo, po, 100 mg/kg, route gavage, dose level Middle; for APTT / Bas / Eos / Fbg / Hb / Ht / Lym / MCH / MCHC / MCV / Mono / Neu / PT / Plat / RBC / Ret / WBC: tissue Blood; for KIDNEY_L / KIDNEY_R / KIDNEY_TOTAL: tissue Kidney; for LIVER: tissue Liver; for A/G / ALP / ALT / AST / BUN / CRE / Ca / Cl / DBIL / GLC / IP / K / LDH / Na / PL / RALB / TBIL / TC / TG / TP / gamma-GTP: tissue Plasma

Question: What does the source list for Cc1cccc(Nc2ccccc2C(=O)O)c1C [MEFENAMIC ACID]?
Answer: TERMINAL_BW (72 h, time 3 day): 234.2 g; APTT (72 h, time 3 day): 18.5 s; Bas (72 h, time 3 day): 0%; Eos (72 h, time 3 day): 1%; Fbg (72 h, time 3 day): 242.4 mg/dL; Hb (72 h, time 3 day): 13.5 g/dL; Ht (72 h, time 3 day): 38.1%; Lym (72 h, time 3 day): 79.2%; MCH (72 h, time 3 day): 22.1 pg; MCHC (72 h, time 3 day): 35.4%; MCV (72 h, time 3 day): 62.4 fL; Mono (72 h, time 3 day): 2.6%; Neu (72 h, time 3 day): 15.6%; PT (72 h, time 3 day): 12.1 s; Plat (72 h, time 3 day): 122.6 x10_4/uL; RBC (72 h, time 3 day): 611.8 x10_4/ul; Ret (72 h, time 3 day): 5.7%; WBC (72 h, time 3 day): 97.2 x10_2/uL; KIDNEY_L (72 h, time 3 day): 1 g; KIDNEY_R (72 h, time 3 day): 1 g; KIDNEY_TOTAL (72 h, time 3 day): 2 g; LIVER (72 h, time 3 day): 11.2 g; A/G (72 h, time 3 day): 1.6; ALP (72 h, time 3 day): 1044 IU/L; ALT (72 h, time 3 day): 38.6 IU/L; AST (72 h, time 3 day): 65.4 IU/L; BUN (72 h, time 3 day): 14.8 mg/dL; CRE (72 h, time 3 day): 0.4 mg/dL; Ca (72 h, time 3 day): 10.9 mg/dL; Cl (72 h, time 3 day): 104 meq/L; DBIL (72 h, time 3 day): 0.098 mg/dL; GLC (72 h, time 3 day): 189.2 mg/dL; IP (72 h, time 3 day): 6.9 mg/dL; K (72 h, time 3 day): 4.2 meq/L; LDH (72 h, time 3 day): 191.6 IU/L; Na (72 h, time 3 day): 141.8 meq/L; PL (72 h, time 3 day): 148 mg/dL; RALB (72 h, time 3 day): 3.4 g/dL; TBIL (72 h, time 3 day): 0.2 mg/dL; TC (72 h, time 3 day): 81.6 mg/dL; TG (72 h, time 3 day): 88.2 mg/dL; TP (72 h, time 3 day): 5.5 g/dL; gamma-GTP (72 h, time 3 day): 1.6 IU/L; TERMINAL_BW ([…], time 7 day): 269.2 g; TERMINAL_BW ([…], time 14 day): 320.1 g; TERMINAL_BW ([…], time 28 day): 386.3 g; APTT ([…], time 7 day): 18.5 s; Bas ([…], time 7 day): 0%; Eos ([…], time 7 day): 1%; Fbg ([…], time 7 day): 230 mg/dL; Hb ([…], time 7 day): 13.6 g/dL; Ht ([…], time 7 day): 37.9%; Lym ([…], time 7 day): 80.2%; MCH ([…], time 7 day): 21.7 pg; MCHC ([…], time 7 day): 35.9%; MCV ([…], time 7 day): 60.6 fL; Mono ([…], time 7 day): 2.4%; Neu ([…], time 7 day): 14.4%; PT ([…], time 7 day): 11.9 s; Plat ([…], time 7 day): 121.4 x10_4/uL; RBC ([…], time 7 day): 626.4 x10_4/ul; Ret ([…], time 7 day): 5.4%; WBC ([…], time 7 day): 99.8 x10_2/uL; APTT ([…], time 14 day): 20.3 s; Bas ([…], time 14 day): 0%; Eos ([…], time 14 day): 0.8%; Fbg ([…], time 14 day): 246.8 mg/dL; Hb ([…], time 14 day): 14.4 g/dL; Ht ([…], time 14 day): 40.6%; Lym ([…], time 14 day): 76%; MCH ([…], time 14 day): 21.6 pg; MCHC ([…], time 14 day): 35.3%; MCV ([…], time 14 day): 61.2 fL; Mono ([…], time 14 day): 2.4%; Neu ([…], time 14 day): 18.6%; PT ([…], time 14 day): 12.4 s; Plat ([…], time 14 day): 104.3 x10_4/uL; RBC ([…], time 14 day): 664 x10_4/ul; Ret ([…], time 14 day): 4.4%; WBC ([…], time 14 day): 124.7 x10_2/uL; APTT ([…], time 28 day): 19.4 s; Bas ([…], time 28 day): 0%; Eos ([…], time 28 day): 1.2%; Fbg ([…], time 28 day): 261.8 mg/dL; Hb ([…], time 28 day): 15.8 g/dL; Ht ([…], time 28 day): 44.8%; Lym ([…], time 28 day): 75%; MCH ([…], time 28 day): 19.8 pg; MCHC ([…], time 28 day): 35.3%; MCV ([…], time 28 day): 56.3 fL; Mono ([…], time 28 day): 2.2%; Neu ([…], time 28 day): 20.6%; PT ([…], time 28 day): 12.3 s; Plat ([…], time 28 day): 98.4 x10_4/uL; RBC ([…], time 28 day): 796.8 x10_4/ul; Ret ([…], time 28 day): 2.3%; WBC ([…], time 28 day): 98.3 x10_2/uL; KIDNEY_L ([…], time 7 day): 1.1 g; KIDNEY_R ([…], time 7 day): 1.2 g; KIDNEY_TOTAL ([…], time 7 day): 2.2 g; KIDNEY_L ([…], time 14 day): 1.3 g; KIDNEY_R ([…], time 14 day): 1.4 g; KIDNEY_TOTAL ([…], time 14 day): 2.7 g; KIDNEY_L ([…], time 28 day): 1.4 g; KIDNEY_R ([…], time 28 day): 1.4 g; KIDNEY_TOTAL ([…], time 28 day): 2.8 g; LIVER ([…], time 7 day): 12 g; LIVER ([…], time 14 day): 14.3 g; LIVER ([…], time 28 day): 14.9 g; A/G ([…], time 7 day): 1.5; ALP ([…], time 7 day): 825.2 IU/L; ALT ([…], time 7 day): 32.8 IU/L; AST ([…], time 7 day): 73.2 IU/L; BUN ([…], time 7 day): 17 mg/dL; CRE ([…], time 7 day): 0.4 mg/dL; Ca ([…], time 7 day): 10.7 mg/dL; Cl ([…], time 7 day): 103.2 meq/L; DBIL ([…], time 7 day): 0.078 mg/dL; GLC ([…], time 7 day): 219.2 mg/dL; IP ([…], time 7 day): 6.8 mg/dL; K ([…], time 7 day): 3.8 meq/L; LDH ([…], time 7 day): 177.4 IU/L; Na ([…], time 7 day): 140.2 meq/L; PL ([…], time 7 day): 150.8 mg/dL; RALB ([…], time 7 day): 3.4 g/dL; TBIL ([…], time 7 day): 0.1 mg/dL; TC ([…], time 7 day): 87.2 mg/dL; TG ([…], time 7 day): 62.2 mg/dL; TP ([…], time 7 day): 5.6 g/dL; gamma-GTP ([…], time 7 day): 1.2 IU/L; A/G ([…], time 14 day): 1.4; ALP ([…], time 14 day): 798 IU/L; ALT ([…], time 14 day): 39.6 IU/L; AST ([…], time 14 day): 64.6 IU/L; BUN ([…], time 14 day): 18.2 mg/dL; CRE ([…], time 14 day): 0.5 mg/dL; Ca ([…], time 14 day): 10.6 mg/dL; Cl ([…], time 14 day): 103.4 meq/L; DBIL ([…], time 14 day): 0.086 mg/dL; GLC ([…], time 14 day): 208.2 mg/dL; IP ([…], time 14 day): 7.4 mg/dL; K ([…], time 14 day): 4 meq/L; LDH ([…], time 14 day): 138.4 IU/L; Na ([…], time 14 day): 140.8 meq/L; PL ([…], time 14 day): 149 mg/dL; RALB ([…], time 14 day): 3.3 g/dL; TBIL ([…], time 14 day): 0.2 mg/dL; TC ([…], time 14 day): 79 mg/dL; TG ([…], time 14 day): 81.8 mg/dL; TP ([…], time 14 day): 5.8 g/dL; gamma-GTP ([…], time 14 day): 1 IU/L; A/G ([…], time 28 day): 1.3; ALP ([…], time 28 day): 673 IU/L; ALT ([…], time 28 day): 35.4 IU/L; AST ([…], time 28 day): 62.4 IU/L; BUN ([…], time 28 day): 18 mg/dL; CRE ([…], time 28 day): 0.5 mg/dL; Ca ([…], time 28 day): 10.7 mg/dL; Cl ([…], time 28 day): 104.2 meq/L; DBIL ([…], time 28 day): 0.088 mg/dL; GLC ([…], time 28 day): 219.4 mg/dL; IP ([…], time 28 day): 6.7 mg/dL; K ([…], time 28 day): 3.5 meq/L; LDH ([…], time 28 day): 143.8 IU/L; Na ([…], time 28 day): 141.2 meq/L; PL ([…], time 28 day): 156.8 mg/dL; RALB ([…], time 28 day): 3.6 g/dL; TBIL ([…], time 28 day): 0.1 mg/dL; TC ([…], time 28 day): 89.8 mg/dL; TG ([…], time 28 day): 81.6 mg/dL; TP ([…], time 28 day): 6.3 g/dL; gamma-GTP ([…], time 28 day): 1.6 IU/L
